Test results published in patent US10100049B2, “JAK kinase inhibitor compounds for treatment of respiratory disease” (THERAVANCE BIOPHARMA R&D IP, LLC, priority 2015, dated 2018).
Like-named read-outs stand apart in the source and are kept apart here.

Legend:
[1] = system: IL-13 induced pSTAT6 in lung tissue; test: Murine model of IL-13 induced pSTAT6 induction in lung tissue; format: in vivo; conditions: mouse lung; for inhibition in vivo at 500 µg/mL: 0.5 mg/mL, 50 μL oral aspiration, IL-13 challenge 4 h after dosing, lungs collected 1 h later, read-out: pSTAT6 inhibition Assay 5; for factor by which lung concentration was smaller than that of the corresponding compound of the invention: pharmacodynamic assay
Description: Il-13 is an important cytokine underlying the pathophysiology of asthma (Kudlacz et al. Eur. J. Pharmacol, 2008, 582, 154-161). IL-13 binds to cell surface receptors activating members of the Janus family of kinases (JAK) which then phosphorylate STAT6 and subsequently activates further transcription pathways. In the described model, a dose of IL-13 was delivered locally into the lungs of mice to induce the phosphorylation of STAT6 (pSTAT6) which is then measured as the endpoint.
Adult balb/c mice from Harlan were used in the assay. On the day of study, animals were lightly anesthetized with isoflurane and administered either vehicle or test compound (0.5 mg/mL, 50 μL total volume over several breaths) via oral aspiration. Animals were placed in lateral recumbency post dose and monitored for full recovery from anesthesia before being returned to their home cage. Four hours later, animals were once again briefly anesthetized and challenged with either vehicle or IL-13 (0.03 μg total dose delivered, 50 μL total volume) via oral aspiration before being monitored for recovery from anesthesia and returned to their home cage. One hour after vehicle or IL-13 administration, lungs were collected for both pSTAT6 detection using an anti-pSTAT6 ELISA (rabbit mAb capture/coating antibody; mouse mAb detection/report antibody: anti-pSTAT6-pY641; secondary antibody: anti-mouse IgG-HRP) and analyzed for total drug concentration as described above in Assay 4.
Selected compounds of the invention were tested in the assay. Activity in the model is evidenced by a decrease in the level of pSTAT6 present in the lungs of treated animals at 5 hours compared to the vehicle treated, IL-13 challenged control animals. The difference between the control animals which were vehicle-treated, IL-13 challenged and the control animals which were vehicle-treated, vehicle challenged dictated the 0% and 100% inhibitory effect, respectively, in any given experiment.

[2] = Pharmacokinetics in plasma and lung in mouse; format: in vivo; conditions: oral aspiration 0.2 mg/mL 50 uL, lung AUC (μg hr/g) / plasma AUC (μg hr/mL)
Description: Plasma and lung levels of test compounds and ratios thereof were determined in the following manner. BALB/c mice from Charles River Laboratories were used in the assay. Test compounds were individually formulated in 20% propylene glycol in pH 4 citrate buffer at a concentration of 0.2 mg/mL and 50 uL of the dosing solution was introduced into the trachea of a mouse by oral aspiration. At various time points (typically 0.167, 2, 6, 24 hr) post dosing, blood samples were removed via cardiac puncture and intact lungs were excised from the mice. Blood samples were centrifuged (Eppendorf centrifuge, 5804R) for 4 minutes at approximately 12,000 rpm at 4° C. to collect plasma. Lungs were padded dry, weighed, and homogenized at a dilution of 1:3 in sterile water. Plasma and lung levels of test compound were determined by LC-MS analysis against analytical standards constructed into a standard curve in the test matrix. A lung to plasma ratio was determined as the ratio of the lung AUC in μg hr/g to the plasma AUC in μg hr/mL, where AUC is conventionally defined as the area under the curve of test compound concentration vs. time.

[3] = system: Alternaria-induced BALF eosinophils; test: Murine model of Alternaria alternata-induced eosinophilic inflammation of the lung; format: in vivo; conditions: mouse; maximum statistically significant inhibition; 0.1-1.0 mg/mL, 50 μL oropharyngeal aspiration; BALF 48 h after alternaria
Description: Airway eosinophilia is a hallmark of human asthma. Alternaria alternata is a fungal aeroallergen that can exacerbate asthma in humans and induces eosinophilic inflammation in the lungs of mice (Havaux et al. Clin Exp Immunol. 2005, 139(2):179-88).
Seven- to nine-week old male C57 mice from Taconic were used in the study. On the day of study, animals were lightly anesthetized with isoflurane and administered either vehicle or test compound (0.1-1.0 mg/mL, 50 μL total volume over several breaths) via oropharyngeal aspiration. Animals were placed in lateral recumbency post dose and monitored for full recovery from anesthesia before being returned to their home cage. One hour later, animals were once again briefly anesthetized and challenged with either vehicle or alternaria extract (200 ug total extract delivered, 50 μL total volume) via oropharyngeal aspiration before being monitored for recovery from anesthesia and returned to their home cage. Forty-eight hours after alternaria administration, bronchoalveolar lavage fluid (BALF) was collected and eosinophils were counted in the BALF using the Advia 120 Hematology System (Siemens).
Selected compounds of the invention were tested in this alternaria assay. Activity in the model is evidenced by a decrease in the level of eosinophils present in the BALF of treated animals at forty-eight hours compared to the vehicle treated, alternaria challenged control animals. Data are expressed as percent inhibition of the vehicle treated, alternaria challenged BALF eosinophils response. To calculate percent inhibition, the number of BALF eosinophils for each condition is converted to percent of the average vehicle treated, alternaria challenged BALF eosinophils and subtracted from one-hundred percent.

JAK2 = JAK2 (Homo sapiens (Human), UniProt O60674)
[4] = system: IL-13 induced STAT6 phosphorylation in BEAS-2B human lung epithelial cells; test: AlphaScreen cellular potency assay, IL-13 induced STAT6 phosphorylation in BEAS-2B cells; format: cell-based; conditions: for IC50: Homo sapiens
Description: The AlphaScreen JAM cellular potency assay was carried out by measuring interleukin-13 (IL-13, R&D Systems) induced STAT6 phosphorylation in BEAS-2B human lung epithelial cells (ATCC). The anti-STAT6 antibody (Cell Signaling Technologies) was conjugated to AlphaScreen acceptor beads (Perkin Elmer), while the anti-pSTAT6 (pTyr641) antibody (Cell Signaling Technologies) was biotinylated using EZ-Link Sulfo-NHS-Biotin (Thermo Scientific).
BEAS-2B cells were grown at 37° C. in a 5% CO2 humidified incubator in 50% DMEM/50% F-12 medium (Life Technologies) supplemented with 10% FBS (Hyclone), 100 U/mL penicillin, 100 μg/mL streptomycin (Life Technologies), and 2 mM GlutaMAX (Life Technologies). On day 1 of the assay, cells were seeded at a 7,500 cells/well density in white poly-D-lysine-coated 384-well plates (Corning) with 25 μL medium, and were allowed to adhere overnight in the incubator. On day 2 of the assay, the medium was removed and replaced with 12 μL of assay buffer (Hank's Balanced Salt Solution/HBSS, 25 mM HEPES, and 1 mg/ml bovine serum albumin/BSA) containing dose-responses of test compounds. Compounds were serially diluted in DMSO and then diluted another 1000-fold in media to bring the final DMSO concentration to 0.1%. Cells were incubated with test compounds at 37° C. for 1 h, and followed by the addition of 12 μl of pre-warmed IL-13 (80 ng/ml in assay buffer) for stimulation. After incubating at 37° C. for 30 min, the assay buffer (containing compound and IL-13) was removed, and 10 μl of cell lysis buffer (25 mM HEPES, 0.1% SDS, 1% NP-40, 5 mM MgCl2, 1.3 mM EDTA, 1 mM EGTA, and supplement with Complete Ultra mini protease inhibitors and PhosSTOP from Roche Diagnostics). The plates were shaken at ambient temperature for 30 min before the addition of detection reagents. A mixture of biotin-anti-pSTAT6 and anti-STAT6 conjugated acceptor beads was added first and incubated at ambient temperature for 2 h, followed by the addition of streptavidin conjugated donor beads (Perkin Elmer). After a minimum of 2 h incubation, the assay plates were read on the EnVision plate reader.
Results were expressed as the negative logarithm of the IC50 value, pIC50.

Tyk2 = Tyk2 (Homo sapiens (Human), UniProt P29597); test: LanthaScreen JAK biochemical assay (Tyk2); conditions: read-out: Tyk 2 (PKi); further: ATP at Km 10 µM
JAK3 = JAK3 (Homo sapiens (Human), UniProt P52333); test: LanthaScreen JAK biochemical assay (JAK3); conditions: ATP at Km 1.6 μM; read-out: JAK 3 (pKi) (converted)
JAK1 = JAK1 (Homo sapiens (Human), UniProt P23458); test: LanthaScreen JAK biochemical assay (JAK1); conditions: for fold less potent than the corresponding compound of the invention in the enzyme assay: JAK1 enzyme assay
[5] = IL-13 induced STAT6 phosphorylation, BEAS-2B cells, read-out: BEAS-2B pIC50 (converted)
[6] = read-out: pKi, JAK1 enzyme assay (converted)
[7] = BEAS-2B, read-out: BEAS-2B pIC50 (cellular potency) (converted)

Sequence of JAK1 (P23458 whole entry): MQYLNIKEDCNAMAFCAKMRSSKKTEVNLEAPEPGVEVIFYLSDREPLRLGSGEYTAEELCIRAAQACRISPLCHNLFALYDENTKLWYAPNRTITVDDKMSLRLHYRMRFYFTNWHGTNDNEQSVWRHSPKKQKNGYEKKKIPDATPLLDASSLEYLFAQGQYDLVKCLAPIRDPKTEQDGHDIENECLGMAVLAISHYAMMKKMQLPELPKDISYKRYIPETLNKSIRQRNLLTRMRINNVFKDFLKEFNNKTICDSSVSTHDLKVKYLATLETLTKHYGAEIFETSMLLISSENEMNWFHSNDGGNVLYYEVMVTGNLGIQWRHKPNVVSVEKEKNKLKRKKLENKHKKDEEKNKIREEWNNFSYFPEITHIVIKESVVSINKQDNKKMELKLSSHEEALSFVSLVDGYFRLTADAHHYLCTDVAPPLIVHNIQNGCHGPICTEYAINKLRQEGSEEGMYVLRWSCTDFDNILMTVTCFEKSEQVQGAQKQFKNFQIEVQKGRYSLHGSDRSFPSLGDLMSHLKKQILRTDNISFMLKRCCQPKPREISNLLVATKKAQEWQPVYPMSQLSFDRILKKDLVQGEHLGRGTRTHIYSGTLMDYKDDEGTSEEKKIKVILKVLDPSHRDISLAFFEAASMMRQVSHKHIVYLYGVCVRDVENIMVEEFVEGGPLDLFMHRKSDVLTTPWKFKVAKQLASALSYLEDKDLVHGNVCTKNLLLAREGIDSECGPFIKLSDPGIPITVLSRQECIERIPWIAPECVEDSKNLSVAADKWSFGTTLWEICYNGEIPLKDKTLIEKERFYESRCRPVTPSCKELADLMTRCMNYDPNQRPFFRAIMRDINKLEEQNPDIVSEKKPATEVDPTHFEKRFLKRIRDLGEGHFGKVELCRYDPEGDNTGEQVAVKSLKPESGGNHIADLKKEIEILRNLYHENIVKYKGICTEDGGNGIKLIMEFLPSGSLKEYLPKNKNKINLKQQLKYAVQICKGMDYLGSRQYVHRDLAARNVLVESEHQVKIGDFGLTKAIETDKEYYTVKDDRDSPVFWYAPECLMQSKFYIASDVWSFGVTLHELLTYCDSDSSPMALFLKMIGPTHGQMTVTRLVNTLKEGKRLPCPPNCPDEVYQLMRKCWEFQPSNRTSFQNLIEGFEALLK
Sequence of JAK2 (O60674 whole entry): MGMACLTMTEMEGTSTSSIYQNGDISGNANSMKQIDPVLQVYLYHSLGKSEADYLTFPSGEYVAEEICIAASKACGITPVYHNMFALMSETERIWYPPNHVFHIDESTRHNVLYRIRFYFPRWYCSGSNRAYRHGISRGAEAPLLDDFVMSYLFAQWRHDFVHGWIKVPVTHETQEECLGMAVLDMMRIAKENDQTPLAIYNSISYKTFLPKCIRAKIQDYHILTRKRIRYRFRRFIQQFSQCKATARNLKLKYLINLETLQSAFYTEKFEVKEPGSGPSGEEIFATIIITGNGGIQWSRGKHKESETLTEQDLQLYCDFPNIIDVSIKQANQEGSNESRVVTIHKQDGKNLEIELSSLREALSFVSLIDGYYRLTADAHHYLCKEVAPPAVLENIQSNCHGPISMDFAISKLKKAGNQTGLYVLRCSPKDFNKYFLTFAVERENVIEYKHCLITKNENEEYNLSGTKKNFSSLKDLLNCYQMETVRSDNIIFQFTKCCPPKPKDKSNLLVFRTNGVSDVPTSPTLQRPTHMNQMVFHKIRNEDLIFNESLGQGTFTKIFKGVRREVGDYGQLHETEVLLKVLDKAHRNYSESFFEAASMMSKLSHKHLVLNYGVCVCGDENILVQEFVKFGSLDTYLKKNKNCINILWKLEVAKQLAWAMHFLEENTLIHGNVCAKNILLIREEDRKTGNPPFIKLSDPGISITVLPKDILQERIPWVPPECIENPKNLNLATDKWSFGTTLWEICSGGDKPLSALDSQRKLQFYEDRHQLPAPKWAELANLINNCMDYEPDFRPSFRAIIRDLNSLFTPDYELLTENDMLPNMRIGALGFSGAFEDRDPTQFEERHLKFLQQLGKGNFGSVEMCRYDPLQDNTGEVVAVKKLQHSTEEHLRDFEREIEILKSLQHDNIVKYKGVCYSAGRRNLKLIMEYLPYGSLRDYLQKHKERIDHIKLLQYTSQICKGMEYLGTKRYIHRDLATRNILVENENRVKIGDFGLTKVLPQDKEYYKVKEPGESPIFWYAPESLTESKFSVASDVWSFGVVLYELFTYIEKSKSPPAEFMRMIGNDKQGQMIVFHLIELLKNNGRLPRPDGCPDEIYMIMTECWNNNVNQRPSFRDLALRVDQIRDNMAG
Sequence of Tyk2 (P29597 whole entry): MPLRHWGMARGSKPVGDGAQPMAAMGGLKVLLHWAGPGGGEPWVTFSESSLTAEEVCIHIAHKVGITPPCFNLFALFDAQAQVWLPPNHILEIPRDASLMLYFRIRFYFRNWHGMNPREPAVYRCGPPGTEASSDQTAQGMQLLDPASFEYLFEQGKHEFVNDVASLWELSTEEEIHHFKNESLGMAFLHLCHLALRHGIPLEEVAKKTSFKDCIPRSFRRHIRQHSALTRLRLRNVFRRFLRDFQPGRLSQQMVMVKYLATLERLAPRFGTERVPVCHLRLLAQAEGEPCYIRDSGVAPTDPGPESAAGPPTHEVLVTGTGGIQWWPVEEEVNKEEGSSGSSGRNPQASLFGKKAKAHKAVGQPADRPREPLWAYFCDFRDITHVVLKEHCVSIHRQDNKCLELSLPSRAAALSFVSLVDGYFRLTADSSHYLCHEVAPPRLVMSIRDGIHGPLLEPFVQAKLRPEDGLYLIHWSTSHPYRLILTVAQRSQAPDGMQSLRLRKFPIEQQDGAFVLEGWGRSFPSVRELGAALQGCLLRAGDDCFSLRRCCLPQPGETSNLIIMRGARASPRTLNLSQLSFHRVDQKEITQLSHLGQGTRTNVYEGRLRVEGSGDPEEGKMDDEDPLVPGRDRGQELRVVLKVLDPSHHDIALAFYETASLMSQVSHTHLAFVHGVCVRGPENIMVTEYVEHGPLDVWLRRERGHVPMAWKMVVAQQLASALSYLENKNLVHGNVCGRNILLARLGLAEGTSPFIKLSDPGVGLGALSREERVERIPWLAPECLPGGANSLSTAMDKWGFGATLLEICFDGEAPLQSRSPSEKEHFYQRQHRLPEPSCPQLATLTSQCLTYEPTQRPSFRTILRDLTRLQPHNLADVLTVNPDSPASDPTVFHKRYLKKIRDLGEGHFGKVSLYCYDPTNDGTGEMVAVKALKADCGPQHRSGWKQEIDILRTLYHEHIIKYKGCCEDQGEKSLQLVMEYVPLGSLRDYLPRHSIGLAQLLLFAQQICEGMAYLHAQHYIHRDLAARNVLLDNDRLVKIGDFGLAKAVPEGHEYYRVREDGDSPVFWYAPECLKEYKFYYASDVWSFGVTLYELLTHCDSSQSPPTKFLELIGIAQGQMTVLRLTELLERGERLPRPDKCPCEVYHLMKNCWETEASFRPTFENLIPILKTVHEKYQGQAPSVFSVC
Sequence of JAK3 (P52333 whole entry): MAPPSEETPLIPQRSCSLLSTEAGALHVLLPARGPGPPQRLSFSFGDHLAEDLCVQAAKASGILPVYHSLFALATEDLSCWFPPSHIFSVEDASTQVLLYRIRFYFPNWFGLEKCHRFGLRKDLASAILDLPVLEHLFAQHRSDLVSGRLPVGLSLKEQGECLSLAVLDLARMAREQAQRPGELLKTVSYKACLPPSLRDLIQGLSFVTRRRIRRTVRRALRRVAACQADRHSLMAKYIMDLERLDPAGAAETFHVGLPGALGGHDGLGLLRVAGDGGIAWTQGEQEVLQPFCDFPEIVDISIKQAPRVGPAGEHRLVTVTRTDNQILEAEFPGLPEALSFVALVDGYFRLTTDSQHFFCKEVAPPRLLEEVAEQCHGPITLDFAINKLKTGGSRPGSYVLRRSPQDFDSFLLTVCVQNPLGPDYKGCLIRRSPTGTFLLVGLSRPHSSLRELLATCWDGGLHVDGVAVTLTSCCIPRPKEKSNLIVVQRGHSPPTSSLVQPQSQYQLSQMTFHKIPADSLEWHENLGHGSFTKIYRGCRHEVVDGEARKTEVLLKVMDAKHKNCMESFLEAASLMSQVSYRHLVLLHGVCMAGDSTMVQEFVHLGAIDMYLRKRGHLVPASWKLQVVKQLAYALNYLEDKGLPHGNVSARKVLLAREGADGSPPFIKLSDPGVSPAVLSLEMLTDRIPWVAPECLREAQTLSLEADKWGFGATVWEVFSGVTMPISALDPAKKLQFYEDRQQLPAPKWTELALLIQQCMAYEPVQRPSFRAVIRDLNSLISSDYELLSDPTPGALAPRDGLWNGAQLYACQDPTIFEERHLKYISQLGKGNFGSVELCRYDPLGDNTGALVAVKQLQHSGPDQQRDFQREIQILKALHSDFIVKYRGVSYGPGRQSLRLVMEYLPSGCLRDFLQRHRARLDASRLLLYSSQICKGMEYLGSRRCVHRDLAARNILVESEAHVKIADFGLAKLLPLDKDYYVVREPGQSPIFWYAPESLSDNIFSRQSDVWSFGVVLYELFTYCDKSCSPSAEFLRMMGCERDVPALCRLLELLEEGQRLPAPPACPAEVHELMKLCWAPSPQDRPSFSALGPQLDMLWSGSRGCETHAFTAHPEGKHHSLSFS

| Compound | inhibition in vivo at 500 µg/mL [1] [%] | Lung to Plasma ratio Assay 4 [2] | Percent Inhibition of Alternaria-induced BALF Eosinophils [3] [%] | Ki (JAK2) [nM] | IC50 [4, 5] [nM] | Ki (Tyk2) [nM] | Ki (JAK3) [nM] | Ki (JAK1; [6]) [nM] | IC50 [4, 7] [nM] | Ki (JAK1; ATP at Km 25 μM, read-out: JAK 1 (pKi) (converted)) [nM] | fold less potent than the corresponding compound of the invention in the enzyme assay (JAK1) [fold] | factor by which lung concentration was smaller than that of the corresponding compound of the invention [1] | fold less potent than the corresponding compound of the invention in the BEAS-2B cellular assay [4] [fold] |
| --- | --- | --- | --- | --- | --- | --- | --- | --- | --- | --- | --- | --- | --- |
| CCc1cc(O)c(F)cc1-c1ccc2c(-c3nc4c([nH]3)CCN(C3CN(C)C3)C4)n[nH]c2c1 [Example 1, 5-Ethyl-2-fluoro-4-(3-(5-(1-methylazetidin-3-yl)-4,5,6,7-tetrahydro-1H-imidazo[4,5-c]pyridin-2-yl)-1H-indazol-6-yl)phenol] | > 65 | B (B denotes a ratio between 50 and 100) | 98 | < 0.1 | < 10 | – | – | – | – | – | – | – | – |
| CCc1cc(O)c(F)cc1-c1ccc2c(-c3nc4c([nH]3)CCN(C3CNC3)C4)n[nH]c2c1 [Example 2, 4-(3-(5-(azetidin-3-yl)-4,5,6,7-tetrahydro-1H-imidazo[4,5-c]pyridin-2-yl)-1H-indazol-6-yl)-5-ethyl-2-fluorophenol] | 33 to 50 | C (C denotes a ratio between 10 and 50) | 93 | < 0.1 | 10 to 39.8 | 0.1 to 1 | – | – | – | – | – | – | – |
| CCc1cc(O)c(F)cc1-c1ccc2c(-c3nc4c([nH]3)CCN(C3CN(C(C)C)C3)C4)n[nH]c2c1 [Example 3, 5-ethyl-2-fluoro-4-(3-(5-(1-isopropylazetidin-3-yl)-4,5,6,7-tetrahydro-1H-imidazo[4,5-c]pyridin-2-yl)-1H-indazol-6-yl)phenol] | > 65 | C (C denotes a ratio between 10 and 50) | 61 | < 0.1 | < 10 | 0.1 to 1 | 0.1 to 1 | – | – | – | – | – | – |
| CCc1cc(O)c(F)cc1-c1ccc2c(-c3nc4c([nH]3)CCN(CC3CCCN3C3COC3)C4)n[nH]c2c1 (centres unmarked) [Example 4-8] | – | – | – | – | – | – | – | 1 to 3.16 | 39.8 to 1000 | – | – | – | – |
| CCc1cc(O)c(F)cc1-c1ccc2c(-c3nc4c([nH]3)CCN(C3CCN(C)CC3)C4)n[nH]c2c1 [Example 6, 5-Ethyl-2-fluoro-4-(3-(5-(1-methylpiperidin-4-yl)-4,5,6,7-tetrahydro-1H-imidazo[4,5-c]pyridin-2-yl)-1H-indazol-6-yl)phenol] | 50 to 65 | B (B denotes a ratio between 50 and 100) | 88 | < 0.1 | < 10 | 0.1 to 1 | 0.1 to 1 | – | – | – | – | – | – |
| CCc1cc(O)c(F)cc1-c1ccc2c(-c3nc4c([nH]3)CCN(CCN(C)C)C4)n[nH]c2c1 [Example 7, 4-(3-(5-(2-(dimethylamino)ethyl)-4,5,6,7-tetrahydro-1H-imidazo[4,5-c]pyridin-2-yl)-1H-indazol-6-yl)-5-ethyl-2-fluorophenol] | > 65 | B (B denotes a ratio between 50 and 100) | 96 | < 0.1 | < 10 | – | – | – | – | – | – | – | – |
| CCc1cc(O)c(F)cc1-c1ccc2c(-c3nc4c([nH]3)CCN(CCNC3CC(OC)C3)C4)n[nH]c2c1 (centres unmarked) [Example 8, 5-Ethyl-2-fluoro-4-(3-(5-(2-((3-methoxycyclobutyl)amino)ethyl)-4,5,6,7-tetrahydro-1H-imidazo[4,5-c]pyridin-2-yl)-1H-indazol-6-yl)phenol] | 50 to 65 | A (A denotes a ratio >100) | 60 | < 0.1 | < 10 | 0.1 to 1 | 0.1 to 1 | – | – | – | – | – | – |
| CCc1cc(O)c(F)cc1-c1ccc2c(-c3nc4c([nH]3)CCN(CC3CCN3C3COC3)C4)n[nH]c2c1 (centres unmarked) [Example 8-11] | – | – | – | – | – | – | – | 1 to 3.16 | 39.8 to 1000 | – | – | – | – |
| CCc1cc(O)c(F)cc1-c1ccc2c(-c3nc4c([nH]3)CCN(C[C@@H]3CCCN3C)C4)n[nH]c2c1 [Example 11, (S)-5-ethyl-2-fluoro-4-(3-(5-((1-methylpyrrolidin-2-yl)methyl)-4,5,6,7-tetrahydro-1H-imidazo[4,5-c]pyridin-2-yl)-1H-indazol-6-yl)phenol] | 33 to 50 | A (A denotes a ratio >100) | 71 | < 0.1 | < 10 | 0.316 to 1 | 0.1 to 1 | – | – | 0.1 to 1 | – | – | – |
| CCc1cc(O)c(F)cc1-c1ccc2c(-c3nc4c([nH]3)CCN(C[C@H]3COCCN3)C4)n[nH]c2c1 [Example 13, (S)-5-Ethyl-2-fluoro-4-(3-(5-(morpholin-3-ylmethyl)-4,5,6,7-tetrahydro-1H-imidazo[4,5-c]pyridin-2-yl)-1H-indazol-6-yl)phenol] | 33 to 50 | A (A denotes a ratio >100) | 82 | < 0.1 | < 10 | 0.316 to 1 | 0.1 to 1 | – | – | – | – | – | – |
| CCc1cc(O)c(F)cc1-c1ccc2c(-c3nc4c([nH]3)CCN(C3CC(C)C3)C4)n[nH]c2c1 (centres unmarked) [Example C-1, 5-Ethyl-2-fluoro-4-(3-(5-(3-methylcyclobutyl)-4,5,6,7-tetrahydro-1H-imidazo[4,5-c]pyridin-2-yl)-1H-indazol-6-yl)phenol, reference compound] | – | – | – | – | – | – | – | – | – | – | 2 | 36 | 6 |
| CCc1cc(O)c(F)cc1-c1ccc2c(-c3nc4c([nH]3)CCN(CCC(C)C)C4)n[nH]c2c1 [Example C-2, reference compound] | – | – | – | – | – | – | – | – | – | – | 3 | 52 | 6 |
| CCc1cc(O)c(F)cc1-c1ccc2c(-c3nc4c([nH]3)CCN(CC3CCCOC3)C4)n[nH]c2c1 (centres unmarked) [Example C-3, reference compound] | – | – | – | – | – | – | – | – | – | – | 6 | 13 | 3 |
| CCc1cc(O)c(F)cc1-c1ccc2c(-c3nc4c([nH]3)CCN(C3CCC(C)CC3)C4)n[nH]c2c1 (centres unmarked) [Example C-4, reference compound] | – | – | – | – | – | – | – | – | – | – | 2.5 | 23 | 6 |
